Measurements reported in PubChem BioAssay AID256 (DTP/NCI, 2004).
Where “and” joins values, the source holds several entries; their conditions need not be identical. Equal entries are not always repeated. Inconclusive results and toxic doses are left out. Rule for the calls: active = survival T/C of 150% or more; inactive = T/C below 125% in these data.

System: CD2F1 mice, L1210 leukemia ip, survival T/C
Experiment: NCI In Vivo Anticancer Drug Screen. Data for tumor model L1210 Leukemia (intraperitoneal) in CD2F1 (CDF1) mice
Conditions: endpoint: mean survival time, higher = longer survival
Method in brief: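 In this screen, transplantable tumors were grown in mice given either the compound or its vehicle. Results were expressed as the treated measurement relative to the control measurement.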

[1] = dose: 100.0 mg/kg/injection, schedule: Q01DX009 (ip), vehicle: saline with Tween-80
[2] = dose: 100.0 mg/kg/injection, schedule: Q04DX003 (ip), vehicle: saline with Tween-80
[3] = dose: 200.0 mg/kg/injection, schedule: Q01DX009 (ip), vehicle: saline with Tween-80
[4] = dose: 200.0 mg/kg/injection, schedule: Q04DX003 (ip), vehicle: saline with Tween-80
[5] = dose: 400.0 mg/kg/injection, schedule: Q01DX009 (ip), vehicle: saline with Tween-80
[6] = dose: 400.0 mg/kg/injection, schedule: Q04DX003 (ip), vehicle: saline with Tween-80
[7] = dose: 100.0 mg/kg/injection, schedule: Q04DX002 (ip), vehicle: saline with Tween-80
[8] = dose: 100.0 mg/kg/injection, schedule: Q04DX003 (ip), vehicle: saline
[9] = dose: 200.0 mg/kg/injection, schedule: Q04DX003 (ip), vehicle: saline
[10] = dose: 400.0 mg/kg/injection, schedule: Q04DX003 (ip), vehicle: saline
[11] = dose: 100.0 mg/kg/injection, schedule: Q01DX009 (ip), vehicle: saline
[12] = dose: 200.0 mg/kg/injection, schedule: Q01DX009 (ip), vehicle: saline
[13] = dose: 100.0 mg/kg/injection, schedule: Q01DX001 (ip), vehicle: saline with Tween-80
[14] = dose: 200.0 mg/kg/injection, schedule: Q01DX001 (ip), vehicle: saline with Tween-80
[15] = dose: 400.0 mg/kg/injection, schedule: Q01DX001 (ip), vehicle: saline with Tween-80

Measured: T/C

c1ccc2c(c1)OB(C1CCCC1)O2
inactive: dose: 100.0 mg/kg/injection, schedule: Q01DX009 (ip), vehicle: other 93 % of control | dose: 200.0 mg/kg/injection, schedule: Q01DX009 (ip), vehicle: other 105 % of control | dose: 400.0 mg/kg/injection, schedule: Q01DX009 (ip), vehicle: other 109 % of control

Cc1cnc(O[Si](C)(C)C)nc1O[Si](C)(C)C
inactive: [1] 97 % of control | [2] 97 % of control | [3] 96 % of control | [4] 98 % of control | [5] 103 % of control | [6] 101 % of control

Cc1cc(C)c(C(=O)CC(O)(C(F)(F)F)C(F)(F)F)c(C)c1
inactive: [2] 115 % of control | [4] 107 % of control | [6] 107 % of control

CC1C(=O)OC2C1CCC1(C)C3OC3C(=O)C3(C)OC231 (stereo not given)
inactive: [7] 96 % of control

CCSC(SCC)[C@H](NC(C)=O)[C@@H](O)[C@H](O)[C@H](O)CO
inactive: [8] 101 % of control | [9] 98 % of control | [10] 95 % of control

O=C1/C(=C/c2cccc([N+](=O)[O-])c2)CCc2ccccc21
inactive: [11] 94 % of control | [12] 97 % of control | dose: 400.0 mg/kg/injection, schedule: Q01DX009 (ip), vehicle: saline 91 % of control

Cc1csc2nc[nH]c(=O)c12
inactive: [1] 97 % of control | [3] 98 % of control | [5] 105 % of control

CCOC(=O)CN1CCC(C2(c3cc4ccccc4[nH]3)OCCO2)CC1
inactive: [13] 102 % of control | [14] 102 % of control | [15] 102 % of control

O=C1C(c2ccccc2)=C2C(=C1c1ccccc1)c1cccc3cccc2c13
inactive: [2] 92 % of control | [4] 90 % of control | [6] 92 % of control

Cc1ncc(C=C(C(=O)O)C(=O)O)n1Cc1ccccc1
inactive: [13] 98 % of control | [14] 104 % of control | [15] 104 % of control

CSc1c(Cl)cc(Cl)cc1C(=O)O
inactive: [2] 94 % of control | [4] 91 % of control | [6] 96 % of control

O=P(O)(O)OCC(O)CCl (stereo not given)
inactive: [11] 96 % of control | [8] 100 % of control | [12] 92 % of control | [9] 91 % of control | [10] 103 % of control

Nc1ccc(-c2ccc(C(=O)O)cc2)cc1
inactive: [13] 104 % of control and 108 % of control | [7] 101 % of control and 107 % of control | [14] 93 % of control and 98 % of control | dose: 200.0 mg/kg/injection, schedule: Q04DX002 (ip), vehicle: saline with Tween-80 95 % of control and 96 % of control | dose: 400.0 mg/kg/injection, schedule: Q04DX002 (ip), vehicle: saline with Tween-80 87 % of control

CC(C)C1(C(=O)NNC(=O)CCCc2ccc(N(CCCl)CCCl)cc2)OC2(O)CCCCCN2C1=O (stereo not given)
inactive: dose: 6.25 mg/kg/injection, schedule: Q04DX003 (ip), vehicle: DMSO 101 % of control | dose: 12.5 mg/kg/injection, schedule: Q04DX003 (ip), vehicle: DMSO 95 % of control | dose: 25.0 mg/kg/injection, schedule: Q04DX003 (ip), vehicle: DMSO 114 % of control

CN(CCC#N)C(=O)Nc1ccccc1
inactive: dose: 100.0 mg/kg/injection, schedule: Q04DX003 (ip), vehicle: saline + alcohol 93 % of control | dose: 200.0 mg/kg/injection, schedule: Q04DX003 (ip), vehicle: saline + alcohol 98 % of control | dose: 400.0 mg/kg/injection, schedule: Q04DX003 (ip), vehicle: saline + alcohol 95 % of control
